# Data reported in patent publication US9987333B2, “Method for suppressing malignant tumor metastasis” (Shionogi & Co., Ltd., priority 2012, dated 2018).
# Assays:
# [1] = tested on: Human lung arterial microvascular endothelial cells; assay: Adhesion of A549-GFP human lung cancer cells to human lung arterial microvascular endothelial cells in co-culture (Example 3); type: cell-based; conditions: 3 h co-culture
# Method: Human lung arterial microvascular endothelial cells were cultured to confluence, losartan was added thereto (to a final concentration of 5×10^−6 M), and 2 hours later, phosphate buffered saline (PBS) or cisplatin (CDDP) was added (to a final concentration of 5 μM). An hour later, the culture medium was replaced with a fresh culture medium (Medium 199 containing 1% BSA). To this, a suspension of fluorescently-labeled A549 human lung cancer cells (1×10^5 cells) was added, and the cells were co-cultured for 3 hours. After the co-culture, non-adherent cancer cells were washed out with cold PBS, and then 15-minute fixation with 4% formalin was performed. […] In FIG. 9A, spots which appear gray (actually green) are fluorescently-labeled A549-GFP human lung cancer cells. In FIG. 9B, white bars are for the control (without losartan pretreatment), and black bars are for the cases with losartan pretreatment. The vertical axis indicates the number of cancer cells that adhered (*: P<0.05).
# Human lung arterial microvascular endothelial cells (manufactured by Lonza Japan) were cultured to confluence, losartan was added thereto (to a final concentration of 5×10^−6 M), and 2 hours later, phosphate buffered saline (PBS) or cisplatin (CDDP) was added (to a final concentration of 5 μM). […]
# [2] = tested on: Mouse melanoma B16-F10; assay: Tail vein injection metastasis test, mouse melanoma B16-F10, CDDP pretreatment with angiotensin II receptor antagonists (Example 2); type: in vivo, mice; conditions: 14 days; for exacerbation of lung metastasis caused by CDDP: oral, with CDDP 5 mg/kg, valsartan 40, losartan 30, olmesartan medoxomil 5, azilsartan 10, candesartan cilexetil 8, irbesartan 100 mg/kg
# Method: Eight-week-old male C57BL6 mice (purchased from Japan SLC, Inc.) were used. Mouse melanoma B16-F10 was purchased from ATCC, and cultured in DMEM (Life Technologies Corp.) containing 10% FCS under 5% CO2 at 37° C. The cells in a subconfluent state were treated with EDTA-trypsin, centrifuged, and then suspended in serum free DMEM so as to be 5×10^6 cells/mL. The melanoma cell suspension (100 μL/mouse, […]) was injected to the tail vein of the mice. As pretreatment, 5 mg/kg of cisplatin (CDDP) was injected to the tail vein of the mice 2 days before the injection of the melanoma cells into the tail vein. As an angiotensin II receptor antagonist, used were valsartan (trade name: Diovan made by Novartis Pharma K.K.), losartan (trade name: Nu-Lotan made by MSD K.K.), olmesartan medoxomil (trade name: Olmetecmade by Daiichi Sankyo Co., Ltd.), azilsartan (trade name: Azilva made by Takeda Pharmaceutical Co., Ltd.), candesartan cilexetil (trade name: Blopress made by Takeda Pharmaceutical Co., Ltd.), and irbesartan (trade name: Avapro made by Sumitomo Dainippon Pharma Co., Ltd.). To the angiotensin II receptor antagonist group, a 0.5% methylcellulose aqueous solution prepared so as to contain valsartan (40 mg/kg), losartan (30 mg/kg), olmesartan medoxomil (5 mg/kg), azilsartan (10 mg/kg), candesartan cilexetil (8 mg/kg), or irbesartan (100 mg/kg) was orally given for 4 days before the start of the experiment (before the injection of tumor cells to mice). After the injection of tumor cells, the oral intake of methylcellulose aqueous solutions containing telmisartan or pitavastatin in the above doses in the angiotensin II receptor antagonist group and the pitavastatin group was continued until the end of the experiment. To the control group, a 0.5% methylcellulose aqueous solution not containing any of the agents was orally given before the start of the experiment. The sample size of each group was n=5. The condition of the lung metastasis of the tumor cells 2 weeks (14 days) after the tumor cell injection was observed.
# [3] = tested on: Mouse melanoma B16-F10; assay: Tail vein injection metastasis test, mouse melanoma B16-F10 (Example 1); type: in vivo, mice
# Method: Six-week-old male C56BL/6N mice (purchased from Japan SLC, Inc.) were used. Mouse melanoma B16-F10 was purchased from ATCC, and cultured in DMEM (Life Technologies Corp.) containing 10% FCS under 5% CO2 at 37° C. The cells in a subconfluent state were treated with EDTA-trypsin, centrifuged, and then suspended in serum free DMEM so as to be 5×10^6 cells/mL. The melanoma cell suspension (100 μL/mouse, 5×10^5 cells) was injected to the tail vein of the mice.
# For the CDDP group, 5 mg/kg of CDDP was injected, as pretreatment, to the tail vein of the mice 2 days before the injection of the melanoma cells into the tail vein. For the control group, an osmotic pump containing 0.9% physiological saline was subcutaneously implanted in the back of each mouse on the day before the injection of the melanoma cells into the tail vein. Similarly, for the adrenomedullin group, an osmotic pump containing adrenomedullin prepared for administration at 0.05 μg/kg/min was subcutaneously implanted into each mouse, and for the ghrelin group, an osmotic pump containing ghrelin prepared for administration at 0.08 μg/kg/min was subcutaneously implanted into each mouse. The tail vein injection of the melanoma cells was performed as above and the drug administration was continued for 2 weeks. The condition of the lung metastasis of the tumor cells 2 weeks after the tumor cell injection was observed (FIG. 1).
# To the angiotensin II receptor antagonist group, a 0.5% methylcellulose aqueous solution prepared so as to contain 2 mg/kg or 8 mg/kg of telmisartan was orally given for 4 days before the start of the experiment (before the injection of tumor cells to mice), and to the pitavastatin group, a 0.5% methylcellulose aqueous solution prepared so as to contain 20 mg/kg of pitavastatin was orally given for the same period. After the injection of tumor cells, the oral intake of methylcellulose aqueous solutions containing telmisartan or pitavastatin in the above doses in the angiotensin II receptor antagonist group and the pitavastatin group was continued until the end of the experiment. To the control group, a 0.5% methylcellulose aqueous solution not containing any of the agents was orally given before the start of the experiment. Also, as reference example, angiotensin II was administered at 1 μg/kg/min, and then the experiment was conducted in the same way. The sample size of each group was n=5.
# In contrast, in both of the telmisartan 2 mg/kg group and the telmisartan 8 mg/kg group, the exacerbation by CDDP was suppressed. The telmisartan 2 mg/kg (CDDP group) and the telmisartan 8 mg/kg (CDDP group) shown in FIGS. 3 and 4 are groups to which 2 mg/kg or 8 mg/kg of telmisartan was given in the manner described above before CDDP was injected as pretreatment. The pitavastatin (CDDP group) is the group to which pitavastatin was given in the manner described above before CDDP was injected as pretreatment.
# [4] = tested on: tumor; conditions: Non Patent Literature 27; cited from earlier work
# [5] = tested on: renal cell carcinoma; conditions: Non Patent Literature 23; cited from earlier work
# [6] = tested on: colon cancer cells; conditions: Non Patent Literature 24; cited from earlier work
# [7] = tested on: E select in; conditions: Non Patent Literature 29; cited from earlier work
# [8] = tested on: human umbilical vein endothelial cells (HUVECs); conditions: Non Patent Literature 29; cited from earlier work
compound,measurement,setting,value
"[NH2][Pt]([NH2])([Cl])[Cl] [CDDP, cisplatin]",number of cancer cells adhered to the vascular endothelial cells,[1]; 1-hour pretreatment with 5 μM CDDP,increased
same,tumor metastasis (number of lung nodules),"[2]; CDDP 5 mg/kg tail vein 2 days before melanoma injection, vs control",augmented
same,lung metastasis of melanoma (number of nodules formed in the lungs),"[3]; CDDP 5 mg/kg tail vein 2 days before melanoma injection, compared to the control group",significantly increased
CCOc1nc2cccc(C(=O)O)c2n1Cc1ccc(-c2ccccc2-c2nc(=O)o[nH]2)cc1 [azilsartan],exacerbation of lung metastasis caused by CDDP,[2],significantly suppressed
CCOc1nc2cccc(C(=O)OC(C)OC(=O)OC3CCCCC3)c2n1Cc1ccc(-c2ccccc2-c2nn[nH]n2)cc1 (stereo not shown) [candesartan cilexetil],exacerbation of lung metastasis caused by CDDP,[2],significantly suppressed
same,angiogenesis and metastasis of a tumor,[4],suppressed
CCCCC1=NC2(CCCC2)C(=O)N1Cc1ccc(-c2ccccc2-c2nnn[nH]2)cc1 [irbesartan],exacerbation of lung metastasis caused by CDDP,[2],significantly suppressed
CCCCc1nc(Cl)c(CO)n1Cc1ccc(-c2ccccc2-c2nn[nH]n2)cc1 [losartan],lung metastasis of renal cell carcinoma increased by cyclosporin (Cs),[5],suppressed
same,adhesion of cancer cells to the vascular endothelial cells,[1]; losartan 5×10^−6 M 2 hours before 5 μM CDDP pretreatment,significantly suppressed
same,exacerbation of lung metastasis caused by CDDP,[2],significantly suppressed
same,liver metastasis of colon cancer cells,[6],suppressed
CC[C@H](C)C(=O)O[C@H]1C[C@@H](C)C=C2C=C[C@H](C)[C@H](CC[C@@H]3C[C@@H](O)CC(=O)O3)[C@H]21 [lovastatin],E select in expression,[7],inhibits
same,adhesion of colon cancer cells to human umbilical vein endothelial cells (HUVECs),[8],inhibits
CCCc1nc(C(C)(C)O)c(C(=O)OCc2oc(=O)oc2C)n1Cc1ccc(-c2ccccc2-c2nnn[nH]2)cc1 [olmesartan medoxomil],exacerbation of lung metastasis caused by CDDP,[2],significantly suppressed
O=C(O)C[C@H](O)C[C@H](O)/C=C/c1c(C2CC2)nc2ccccc2c1-c1ccc(F)cc1 [pitavastatin],exacerbation of the lung metastasis by CDDP,"[3]; pitavastatin 20 mg/kg orally before CDDP (5 mg/kg) pretreatment, 14 days",significantly suppressed
CCCc1nc2c(C)cc(-c3nc4ccccc4n3C)cc2n1Cc1ccc(-c2ccccc2C(=O)O)cc1 [telmisartan],exacerbation of lung metastasis by CDDP,"[3]; telmisartan 2 mg/kg orally before CDDP (5 mg/kg) pretreatment, 14 days",suppressed
same,exacerbation of lung metastasis by CDDP,"[3]; telmisartan 8 mg/kg orally before CDDP (5 mg/kg) pretreatment, 14 days",suppressed
same,lung metastasis of melanoma (number of nodules formed in the lungs),"[3]; telmisartan 8 mg/kg orally, alone, 14 days after tumor cell injection, vs control",significantly suppressed
CCCCC(=O)N(Cc1ccc(-c2ccccc2-c2nnn[nH]2)cc1)[C@H](C(=O)O)C(C)C [valsartan],exacerbation of lung metastasis caused by CDDP,[2],significantly suppressed
